Laboratory results as given in US10463644B2, “Uses of sesquiterpene lactone compounds and their derivatives in drugs preparation” (ACCENDATECH, priority 2013, dated 2019).

Columns and labels:
Format in all cases: in vivo
[1] = test system: IL-1β secreted by synoviocyte; assay: Content of IL-1β in culture supernatant of synoviocyte of RA model rats given test compound; details: rat RA model, dose 30 mg/kg.2d, normal control 0.16 ± 0.034, NaCl 0.49 ± 0.136
Description: (§1) Take Compound 1-50 prepared as per the method according to the present invention and employ the method provided in Reference to prepare model, group drugs and prepare culture supernatant of rat synoviocyte.
(§2) Employ the method provided in Reference to investigate the effects of the test compounds on the synoviocyte to secrete TNF-α and PGE2. Employ the method provided in Reference to investigate the effects of the test compounds on the synoviocyte to secrete IL-1β.
(§3) The experimental data of the test compound 1-50 at a dose of 30 mg/kg.2d as well as the normal control and NaCl group are as follows: […]

[2] = test system: PGE2 secreted by synoviocyte; assay: Content of PGE2 in culture supernatant of synoviocyte of RA model rats given test compound; details: rat RA model, dose 30 mg/kg.2d, normal control 8.34 ± 1.29, NaCl 32.44 ± 10.32
Description: as §1, §2, §3

[3] = test system: TNF-α secreted by synoviocyte; assay: Content of TNF-α in culture supernatant of synoviocyte of RA model rats given test compound; details: rat RA model, dose 30 mg/kg.2d, normal control 0.38 ± 0.027, NaCl 0.74 ± 0.098
Description: as §1, §2, §3

SMILES	Content of IL-1β in culture supernatant of synoviocyte (x ± s) [1]	Content of PGE2 in culture supernatant of synoviocyte (x ± s) [2]	Content of TNF-α in culture supernatant of synoviocyte (x ± s) [3]	Content of IL-1β in culture supernatant of synoviocyte (x ± s) ([1]; 30 mg/kg)	Content of PGE2 in culture supernatant of synoviocyte (x ± s) ([2]; 30 mg/kg)	Content of TNF-α in culture supernatant of synoviocyte (x ± s) ([3]; 30 mg/kg)
COC(=O)c1cn(C[C@@H]2C(=O)O[C@H]3[C@H]2CCC2(CC2)[C@@H]2CCC4(CC4)[C@H]32)nn1 [Compound 44]	0.35 ± 0.069 ng/mL	22.14 ± 2.87 ng/mL	0.54 ± 0.071 ng/mL	–	–	–
O=C1O[C@H]2[C@@H](CCC3(CC3)[C@@H]3CCC4(CC4)[C@H]23)[C@@H]1CSc1ccccc1 [Compound 31]	0.39 ± 0.051 ng/mL	24.41 ± 1.65 ng/mL	0.62 ± 0.056 ng/mL	–	–	–
CC1CCN(C[C@@H]2C(=O)O[C@@H]3C4C(CCC45CC5)C4(CC[C@@H]23)CC4)CC1 (stereo partly drawn) [Compound 36]	0.29 ± 0.064 ng/mL	25.64 ± 2.14 ng/mL	0.66 ± 0.045 ng/mL	–	–	–
C=C1C(=O)OC2C1CCC(C)=C1CCC(C)(OC(=O)C(C)C)C12 (stereo not drawn) [Compound 6]	0.36 ± 0.054 ng/mL	26.75 ± 1.69 ng/mL	0.61 ± 0.072 ng/mL	–	–	–
O=C1O[C@H]2[C@@H](CCC3(CC3)[C@@H]3CCC4(CC4)[C@H]23)[C@@H]1Cn1cc(CCCCO)nn1 [Compound 42]	0.36 ± 0.059 ng/mL	22.58 ± 4.21 ng/mL	0.58 ± 0.055 ng/mL	–	–	–
O=C1O[C@H]2[C@@H](CCC3(CC3)[C@@H]3CCC4(CC4)[C@H]23)[C@@H]1CNCCO [Compound 34]	0.35 ± 0.059 ng/mL	24.61 ± 3.24 ng/mL	0.54 ± 0.067 ng/mL	–	–	–
O=C1O[C@H]2[C@@H](CCC3(CC3)[C@@H]3CCC4(CC4)[C@H]23)[C@@H]1CNCc1ccccc1 [Compound 33]	0.41 ± 0.052 ng/mL	26.64 ± 2.67 ng/mL	0.63 ± 0.054 ng/mL	–	–	–
O=C1O[C@H]2[C@@H](CCC3(CC3)[C@@H]3CCC4(CC4)[C@H]23)[C@@H]1CSCc1ccccc1 [Compound 32]	0.37 ± 0.047 ng/mL	22.75 ± 4.25 ng/mL	0.64 ± 0.044 ng/mL	–	–	–
O=C1O[C@H]2[C@@H](CCC3(CC3)[C@@H]3CCC4(CC4)[C@H]23)[C@@H]1CN1CCOCC1 [Compound 38]	0.35 ± 0.062 ng/mL	19.67 ± 3.14 ng/mL	0.67 ± 0.045 ng/mL	–	–	–
O=C1O[C@H]2[C@@H](CCC3(CC3)[C@@H]3CCC4(CC4)[C@H]23)[C@@H]1Cn1cc(-c2ccccc2)nn1 [Compound 43]	0.43 ± 0.062 ng/mL	24.64 ± 3.95 ng/mL	0.55 ± 0.045 ng/mL	–	–	–
CCCCN(C)C[C@@H]1C(=O)O[C@H]2[C@H]1CCC1(CC1)[C@@H]1CCC3(CC3)[C@H]21 [Compound 41]	0.41 ± 0.054 ng/mL	26.63 ± 1.59 ng/mL	0.45 ± 0.056 ng/mL	–	–	–
CN1CCN(CC2C(=O)O[C@@H]3[C@@H]4[C@@H](CCC45CC5)C4(CC[C@@H]23)CC4)CC1 (stereo partly drawn) [Compound 37]	0.31 ± 0.037 ng/mL	27.94 ± 2.69 ng/mL	0.59 ± 0.035 ng/mL	–	–	–
C#CCCCC(=O)O[C@]1(C)CCC2=C(C)CC[C@H]3C(=C)C(=O)O[C@@H]3[C@H]21 [Compound 19]	0.42 ± 0.091 ng/mL	26.45 ± 5.21 ng/mL	0.62 ± 0.056 ng/mL	–	–	–
C=C1C(=O)OC2C1CCC(C)=C1CCC(C)(OC(=O)C(Cl)Cl)C12 (stereo not drawn) [Compound 10]	0.42 ± 0.069 ng/mL	25.67 ± 7.12 ng/mL	0.54 ± 0.055 ng/mL	–	–	–
C=C1C(=O)OC2C1CCC(C)=C1CCC(C)(OC(=O)C=Cc3ccccc3)C12 (stereo not drawn) [Compound 17]	0.37 ± 0.065 ng/mL	28.95 ± 3.24 ng/mL	0.66 ± 0.077 ng/mL	–	–	–
C=C1C(=O)OC2C1CCC(C)=C1CCC(C)(OC(=O)CC(C)C)C12 (stereo not drawn) [Compound 7]	0.39 ± 0.058 ng/mL	22.82 ± 2.67 ng/mL	0.56 ± 0.044 ng/mL	–	–	–
O=C1O[C@H]2[C@@H](CCC3(CC3)[C@@H]3CCC4(CC4)[C@H]23)[C@@H]1CN1CCCC1 [Compound 39]	0.34 ± 0.095 ng/mL	28.35 ± 2.15 ng/mL	0.52 ± 0.056 ng/mL	–	–	–
C=C1C(=O)OC2C1CCC(C)=C1CCC(C)(OC(=O)CCCCBr)C12 (stereo not drawn) [Compound 12]	0.38 ± 0.069 ng/mL	24.59 ± 2.35 ng/mL	0.66 ± 0.043 ng/mL	–	–	–
C=C1C(=O)OC2C1CCC(C)=C1CCC(C)(OC(=O)C=CC)C12 (stereo not drawn) [Compound 15]	0.41 ± 0.051 ng/mL	24.39 ± 2.38 ng/mL	0.54 ± 0.045 ng/mL	–	–	–
C=C1C(=O)OC2C1CCC(C)=C1CCC(C)(OC(=O)C=C(C)C)C12 (stereo not drawn) [Compound 16]	0.34 ± 0.039 ng/mL	27.61 ± 4.21 ng/mL	0.57 ± 0.073 ng/mL	–	–	–
C=C1C(=O)OC2C1CCC(C)=C1CCC(C)(OC(=O)CCl)C12 (stereo not drawn) [Compound 9]	0.45 ± 0.064 ng/mL	27.92 ± 2.67 ng/mL	0.61 ± 0.065 ng/mL	–	–	–
COC[C@@H]1C(=O)O[C@H]2[C@H]1CCC1(CC1)[C@@H]1CCC3(CC3)[C@H]21 [Compound 30]	0.38 ± 0.049 ng/mL	25.37 ± 4.21 ng/mL	0.65 ± 0.057 ng/mL	–	–	–
C=C1C(=O)OC2C1CCC(C)=C1CCC(C)(OC(=O)CCc3ccccc3)C12 (stereo not drawn) [Compound 20]	0.34 ± 0.056 ng/mL	27.38 ± 1.39 ng/mL	0.58 ± 0.045 ng/mL	–	–	–
CN(CCO)C[C@@H]1C(=O)O[C@H]2[C@H]1CCC1(CC1)[C@@H]1CCC3(CC3)[C@H]21 [Compound 40]	0.31 ± 0.061 ng/mL	25.34 ± 3.57 ng/mL	0.48 ± 0.078 ng/mL	–	–	–
C=CCCC(=O)OC1(C)CCC2=C(C)CCC3C(=C)C(=O)OC3C21 (stereo not drawn) [Compound 18]	0.39 ± 0.029 ng/mL	20.62 ± 2.47 ng/mL	0.64 ± 0.072 ng/mL	–	–	–
CC(O)c1cn(C[C@@H]2C(=O)O[C@H]3[C@H]2CCC2(CC2)[C@@H]2CCC4(CC4)[C@H]32)nn1 (stereo partly drawn) [Compound 45]	0.38 ± 0.039 ng/mL	23.26 ± 3.49 ng/mL	0.49 ± 0.056 ng/mL	–	–	–
C=C1C(=O)OC2C1CCC(C)=C1CCC(C)(OC(=O)CCC)C12 (stereo not drawn) [Compound 4]	0.42 ± 0.064 ng/mL	24.49 ± 2.67 ng/mL	0.56 ± 0.064 ng/mL	–	–	–
C=C1C(=O)OC2C1CCC(C)=C1CCC(C)(OC(=O)CC)C12 (stereo not drawn) [Compound 3]	0.36 ± 0.039 ng/mL	26.96 ± 1.59 ng/mL	0.55 ± 0.042 ng/mL	–	–	–
CC1=C2CC[C@@](C)(O)[C@@H]2[C@H]2OC(=O)[C@@H](CN(C)C)[C@@H]2CC1 [Compound 22]	–	–	–	0.34 ± 0.038 ng/mL	24.69 ± 4.19 ng/mL	0.61 ± 0.082 ng/mL
